# Where a name gives a salt, the structure may show the parent alone.
# Key:
# ERK1/2 = experiment: 5-HT-induced phosphorylation of ERK1/2 in PASMCs; type: cell-based, rat
# Method: (§1) Wistar rats were anesthetized with an overdose of sodium pentobarbital (60 mg/kg) and the skin was sterilized with 75% alcohol. The chest was opened and the heart and lung were removed. The organs were rinsed several times in PBS. The pulmonary arterys (PAs) were segregated in a sterile manner. The outer sphere was peeled and the microtubule was snipped visually, and endothecia were shaved lightly 2-3 times in order to remove endothelial cells. The tunica media was prepared into scraps (1 mm^3) in DMEM (Dulbecco's modified Eagle's medium). PASMCs were cultured in DMEM containing 10% fetal bovine serum (5% CO2 at 37° C.). The culture medium was changed every 3 days and cells were subcultured until confluence. Primary cultures of 2-4 passages were used in the experiments. Cells were examined by immunofluorescence staining of α-actin to confirm the purity of PASMCs.
# (§2) PASMCs were stimulated with 5-HT or not, as indicated. Cells were treated with KMUP-1 for 24 h before 5-HT stimulation. […]
# (§3) The expression of RhoA/ROCK and phosphorylation of ERK1/2 and AKT kinase in PASMCs were assessed by incubating the PASMCs with 5-HT (10 μM) for 15 min (peak time for RhoA/ROCK, ERK1/2 and AKT phosphorylation) and 5-HTT for 10 min (peak time for 5-HTT) after KMUP-1 (1-100 μM) was added to the culture of PASMCs for 24 h.
# AKT = experiment: 5-HT-induced phosphorylation of AKT in PASMCs; type: cell-based, rat
# Method: as §1, §2, §3
# eNOS = experiment: Expression of eNOS in HPAEC (Western blotting); type: cell-based, human
# Method: (§4) HPAEC purchased from ATCC were maintained in humidified incubator containing 5% CO2 at 37° C. HPAEC were cultured in F-12 supplemented with 10% fetal bovine serum. The culture medium was changed every 3 days and cells were subcultured until confluence. HPAEC were harvested with a solution of trypsin-EDTA (GIBCO BRL, NY, USA) while in a logarithmic phase of growth. HPAEC were used between passages 4-8.
# PASMCs were stimulated with 5-HT or not, as indicated. Cells were treated with KMUP-1 for 24 h before 5-HT stimulation. Whole lysates were collected and resolved by SDS-PAGE as previously described (Liu et al., 2004). Primary antibodies were anti-β-actin at: 1:10,000 dilution and anti-RhoA, anti-ROCK, antiphospho-ERK1/2, anti-ERK1/2, anti-phospho-AKT, anti-AKT, anti-5HTT, anti-5-HT2B and anti-eNOS at 1:1000. All blots were incubated with antibodies at 4° C. overnight. After being washed, the appropriate secondary antibodies were added at a dilution of 1:1000 for 1 h at room temperature. After extensive washing, blots were developed with a Super Signal enhanced chemiluminescence kit (Biorad, CA, USA) and visualized on Kodak AR film.
# To measure the expression of eNOS and 5-HT2B receptor in HPAEC after incubation with KMUP-1(1-100 μM) for 24 h, whole lysates were collected for Western blotting assay. The relative density was determined using NIH imaging software.
# [1] = system: human pulmonary artery endothelial cell (HPAEC); experiment: Nitric oxide production in HPAEC (Griess method); type: cell-based; conditions: 5-HT 10 μM for 30 min
# Method: as §4
# Production of NO in HPAEC was determined using the Griess method (Niwano et al., 2003). The three step Greiss test converts nitrate (NO3^−) into nitrite (NO2^−) giving a total NO2^− concentration from a standard calibration curve. HPAEC were incubated with or without KMUP-1 (10 μM) for 24 h and then incubated with 5-HT (10 μmol/L) for 30 min. Media samples from HPAEC were taken and the NO concentration was determined. Six independent experiments were carried out and data are reported as the mean mean±SEM.
# rat pulmonary artery = experiment: Isometric force of 5-HT-constricted pulmonary artery rings
# Method: Wistar rats were euthanized with an overdose of sodium pentobarbital (60 mg/kg, i.p.) before open-chest surgery. During surgery, a thoracic retractor was used to help isolate the pulmonary artery. The chest was opened to dissect the second branches of the main pulmonary artery, which were cut into 2-3 mm rings, suspended under isometric conditions and connected to a force transducer as previously described (Ugo Basile, Model 7004, Comerio-VA, Italy) (Schach et al., 2007) to measure the constriction caused by 5-HT (10 μM). The pulmonary artery ring preparations were stretched to a basal tension of 1 g and allowed to equilibrate for 60-90 min. After equilibration, pulmonary artery rings were constricted with 5-HT (10 μM) to prime the tissues and check the functionality of the endothelium (at least 80% relaxation in response to acetylcholine 1 μM). Once the contractile response to each agonist reached a stable tension, KMUP-1 (0.1-100 μM) was cumulatively added to the organ bath in the presence of 5-HT (10 μM, pre-incubation time of 15 min).
# The effect of KMUP-1 on NOS and 5-HT was also studied in vessels pre-incubated with the NOS inhibitor L-NAME (100 μM) 20 min before 5-HT administration. The percentage of relaxation was estimated using the following equation: relaxation (%)=(maximal contraction—relaxation level)/(maximal contraction-basal level)×100. Data was obtained from serotonin-induced maximal contractile responses in pulmonary artery.
# [2] = system: monocrotaline (MCT)-induced pulmonary artery hypertension rats; experiment: Mean pulmonary arterial pressure in MCT-induced PAH rats; type: in vivo, rat; conditions: MCT-treated rats, daily treatment for 21 days, n = 5
# [3] = system: pulmonary arterial smooth muscle cells (PASMCs); experiment: PASMCs [Ca2+]i measurement (Fura-2/AM); type: cell-based, rat; conditions: at 10 μM; 5-HT 10 μM
# Method: as §1
# The measurement of [Ca^2+]i in PASMCs was performed using a spectrofluorophotometer as previously reported (Wang et al., 2004). PASMCs, cultured for 2-4 passages and re-suspended by trypsin, were loaded with Fura-2/AM for the measurement of [Ca^2+]i changes in cells within the cuvette by spectrofluorophotometer (Shimadzu, RF-5301PC, Shimadzu, Japan). KMUP-1 was applied 5 min before application of 5-HT (10 μM).
# 5-HTT = experiment: Pulmonary 5-HTT expression in MCT-treated rats (immunochemistry, Western blotting); type: in vivo, rat
# Method: All experiments were performed in adult male Wistar rats (300 to 350 g) in accordance with institutional guidelines after approval by the ethical review committee. PAH development and pulmonary expression of 5-HTT were examined in rats after single injection of MCT (60 mg/kg i.p.). To assess the potential preventive effect of KMUP-1 on MCT-induced PAH and associated proliferation, we assigned rats at random to 2 groups of 8 animals which received KMUP-1 at 5 mg/kg/day p.o or 1 mg/kg/day i.p. All treatments were given once a day for 3 weeks after a single MCT injection (60 mg/kg i.p.) (Abe et al., 2004). On day 21, rats were anesthetized and pulmonary artery blood pressure (MPAP) was recorded as previously described (Chung et al., 2010). Lung tissues were dissected for Western blotting and immunohistochemistry.
# For 5-HTT immunostaining, the lung slides were dewaxed in 100% xylene, and the sections were then rehydrated by successive immersion first in decreasing ethanol concentrations (100%, 90%, 80%, 50% and 30%) and then in water. Endogenous peroxidase activity was blocked using H2O2 in methanol (0.3% vol/vol) for 10 min. After three PBS washes, sections were pre-incubated in PBS supplemented with 3% (wt/vol) BSA for 30 min, then incubated overnight at 4° C. with goat polyclonal anti-5-HTT antibody (Abcam Biotechnology, Cambridge, UK) diluted to 1:1000 in 1×PBS, 0.02% BSA. […]
# RhoA = experiment: 5-HT-induced RhoA translocation in PASMCs; type: cell-based, rat; conditions: 1-100 μM, 24 h; 5-HT 10 μM 15 min
# Method: as §1, with “Cells were examined by immunofluorescence staining of α-actin to confirm the purity of PASMCs.” left out
# Previous reports have shown that the active form of RhoA is translocated from the cytosol to the plasma membrane, where it activates Rho kinase (Gong et al., 1997)). […] To assess membrane trans-location of RhoA, protein in membrane and cytosolic fractions was determined by standard Western blot analysis using mouse monoclonal anti-RhoA antibody (1:1000 dilution, Santa Cruz Biotechnology) and a peroxidase-labeled anti-mouse immunoglobulin (Ig) G antibody (1:1000 dilution, Santa Cruz Biotechnology, CA, USA). The relative density of membrane to cytosolic RhoA was determined using NIH imaging software. […]
# PASMCs [4] = experiment: 5-HT-induced PASMCs migration, wound assay model; type: cell-based, rat; conditions: 10-100 μM; 5-HT 10 μM 24 h
# Method: The wound edge was viewed and photographed under a microscope (Nikon, Tokyo, Japan) before and after culture for 24 h in serum-free DMEM in the presence of 5HT (10 μM). The distance the cells migrated from the wound surface was then manually measured.
# PASMCs [5] = experiment: 5-HT-induced PASMCs proliferation, MTT assay; type: cell-based, rat; conditions: KMUP-1 1-100 μM; 5-HT 10 μM 24 h
# Method: as §1
# PASMCs were seeded into 96-well plates at a density of 1×10^4 cells/well. […] At the end of this period, MTT (2 g/L) was added to each well, and incubation proceeded at 37° C. for 4 h. Thereafter, the medium was removed and the cells were solubilized in 150 μL DMSO. The optical density (OD) of each well was determined by enzyme-linked ELISA at 540 nm of wavelength.
# 5-HT2B receptor = target: T1, 5-HT2B receptor (Homo sapiens, UniProt P41595); experiment: Displacement of [3H]-LSD radioligand binding; conditions: from Table 1
# T1 construct: full length clones of 5-HT2A, 5-HT2B and 5-HT2C receptor were prepared from CHO-K1 cells; expressed in transfected cells; host or cells: CHO-K1
# Method: As described previously (Bonhaus et al., 1995), full length clones of 5-HT2A, 5-HT2B and 5-HT2C receptor were prepared from CHO-K1 cells. […] IC50 represents the concentration of competing ligand which displaces 50% of the specific binding of the radioligand. Ki values for competition curves were calculated using the Cheng-Prusoff equation (Cheng, 2001).
# [6] = pre-incubation 1-100 μM for 24 h
# T1 sequence (P41595 whole entry): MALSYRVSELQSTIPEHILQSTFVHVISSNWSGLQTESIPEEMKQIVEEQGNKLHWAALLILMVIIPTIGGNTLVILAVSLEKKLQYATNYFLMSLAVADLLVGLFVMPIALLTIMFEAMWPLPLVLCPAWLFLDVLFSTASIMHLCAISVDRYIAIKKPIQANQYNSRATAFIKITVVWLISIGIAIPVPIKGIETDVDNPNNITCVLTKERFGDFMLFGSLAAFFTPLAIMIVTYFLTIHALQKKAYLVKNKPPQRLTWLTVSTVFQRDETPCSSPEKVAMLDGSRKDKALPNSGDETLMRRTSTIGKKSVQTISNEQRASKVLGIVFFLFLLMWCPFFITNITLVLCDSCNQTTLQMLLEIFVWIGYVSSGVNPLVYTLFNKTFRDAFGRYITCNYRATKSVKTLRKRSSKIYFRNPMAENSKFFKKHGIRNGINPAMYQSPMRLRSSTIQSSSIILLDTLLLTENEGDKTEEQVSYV
smiles,measurement,setting,value
"NCCc1c[nH]c2ccc(O)cc12 [5-HT, 5-hydroxytryptamine]",increase of phosphorylation of ERK1/2,ERK1/2; 5-HT 10 μM for 15 min,2.3 fold
same,increase of phosphorylation of AKT,AKT; 5-HT 10 μM for 15 min,2.3 fold
same,expression of eNOS compared to the control group,eNOS; 5-HT 10 μM for 30 min,increased
same,release of NO compared to the control group,[1],increased
"COC(=O)[C@@H](N)CCCNC(=N)N[N+](=O)[O-] [L-NAME, N^ω-nitro-L-arginine methyl ester, reference compound]",5-HT-induced constriction,rat pulmonary artery; L-NAME alone with 5-HT,enhanced
Cn1c(=O)c2c(ncn2CCN2CCN(c3ccccc3Cl)CC2)n(C)c1=O [KMUP-1 HCl],"mean pulmonary arterial pressure (MPAP), Table 2",[2],35.8 ± 3.2
"Cn1c(=O)c2c(ncn2CCN2CCN(c3ccccc3Cl)CC2)n(C)c1=O [KMUP-1, 7-[2-[4-(2-chlorophenyl)piperazinyl]ethyl]-1,3-dimethyl-xanthine]",contractile response of pulmonary artery to 5-HT (10 μM),rat pulmonary artery; 0.1-100 μM,inhibited
same,maximum response of pulmonary artery to 5-HT in the presence of L-NAME,"rat pulmonary artery; KMUP-1 10-100 μM, L-NAME 100",reduced the maximum response
same,inhibition of the sustained [Ca2+]i response to 5-HT,[3],65%
same,"5-HTT expression in pulmonary artery, immunochemistry","5-HTT; 21 days after MCT injection, 5 mg/kg p.o. and 1 mg/kg i.p.",significantly decreased
same,"5-HTT protein expression in lung tissue, Western blotting",5-HTT; MCT-treated rats,significantly reduced
same,5-HT stimulated RhoA translocation,RhoA,inhibited
same,5-HT-induced phosphorylation of ERK1/2,ERK1/2; [6],dose-dependently inhibited
same,5-HT-induced phosphorylation of AKT,AKT; [6],dose-dependently inhibited
same,5-HT induced PASMCs migration,PASMCs [4],inhibited
same,PASMCs proliferation,PASMCs [5],dose-dependently inhibited
same,affinity order of the sub-receptors,5-HT2B receptor,5-HT2A>5-HT2B>5-HT2C
same,ligand specificity of the human 5-HT2B receptor versus 5-HT2A and 5-HT2C receptors,5-HT2B receptor,more selective
same,eNOS expression,eNOS; 1-100 μM for 24 h,dose-dependently increased
